From US7122203B2, “Stabilized formulations of 6-hydroxy-3-(-4-[2-(piperidin-1-yl) ethoxy]phenoxy)-2-(4-methoxyphenyl) benzo[b]thiophene and salts thereof” (Eli Lilly and Company, priority 2000, dated 2006)

Assays:
Type in all cases: physicochemical
[1] = Physical stability of crystal forms (XRD at different relative humidities, variable temperature XRD)
Experimental: XRD patterns were obtained on a […] powder diffractometer, equipped with a CuKα source (λ=1.54056 Å) and a Kevex solid-state detector, operating at 50 kV and 40 mA. Each sample was scanned between 4° and 35° in 2θ. Samples were allowed to equilibrate for at least 30 minutes at the desired temperature and/or relative humidity before data collection. Variable temperature X-ray powder diffraction patterns were obtained on a […] powder diffractometer which was equipped with a CuKα source (λ=1.54056 Å) operated at 50 kV and 40 mA with a scintillation detector and nickel filter. The powder was packed into a top-loading, recessed temperature controlled holder and a smooth surface was obtained for diffraction. The sample was scanned from 2 to 35° 2θ at 2.5 seconds per step size of 0.04° beginning at 25° C. after an equilibration time of 5 minutes. Subsequent scans were obtained at increasing temperature increments of 25° C. to a maximum of 125° C.

[2] = Hygroscopicity / moisture sorption isotherms; settings: for water content: ambient relative humidities (about 50% R.H.); for water content / immediate weight gain (moisture): hydrochloride; for immediate weight gain (moisture): upon initial exposure to approximately 5% R.H.
Experimental: Hygroscopicity measurements were made for F-I and F-III using the VTI method as follows. Each sample was dried under vacuum at 60° C. until no further weight loss was detected, at which time the sample chamber was brought to 0% relative humidity. Moisture sorption isotherms were obtained at 25° C. using a VTI vacuum moisture balance with the following conditions: sample size 10–15 mg, adsorption/desorption range 0–95% relative humidity, step interval 5%, sample interval 10 minutes.
Moisture Sorption Isotherms were generated using a VTI SGA-100 flow instrument. The samples were analyzed at 25° C. from 0–95% relative humidity (RH) for adsorption and from 95–5% RH for desorption in steps of 5% RH. The adsorption and desorption isotherms were generated as a graph of the % weight change vs. % RH.

[3] = Aqueous solubility and dissolution rate of crystal forms

Row | Structure (SMILES) | thermodynamic stability among known forms of arzoxifene hydrochloride ([1]; ambient storage conditions) | change in diffraction pattern, variable temperature x-ray powder diffraction ([1]; up to 125° C.) | weight increase in moisture sorption/desorption isotherm ([2]; over the range of 0–95% RH, 25° C.) | higher aqueous solubility relative to F-III [3] | physical stability over the entire relative humidity range [1] | water content [2] | immediate weight gain (moisture) ([2]; 25° C.) | aqueous solubilities and dissolution rates of the two forms (F-I vs F-III) [3]
1 | COc1ccc(-c2sc3cc(O)ccc3c2Oc2ccc(OCCN3CCCCC3)cc2)cc1.Cl [F-V, 6-Hydroxy-3-(4-[2-(piperidin-1-yl)ethoxy]phenoxy)-2-(4-methoxyphenyl)benzo[b]thiophene hydrochloride] | thermodynamically most stable known form | no significant change | 0.11% | ~10% | – | – | – | –
2 | COc1ccc(-c2sc3cc(O)ccc3c2Oc2ccc(OCCN3CCCCC3)cc2)cc1.Cl [F-III, 6-Hydroxy-3-(4-[2-(piperidin-1-yl)ethoxy]phenoxy)-2-(4-methoxyphenyl)benzo[b]thiophene hydrochloride] | – | – | – | – | physically stable | about 3.7% | 1.7% | comparable
3 | COc1ccc(-c2sc3cc(O)ccc3c2Oc2ccc(OCCN3CCCCC3)cc2)cc1.Cl [F-I, 6-Hydroxy-3-(4-[2-(piperidin-1-yl)ethoxy]phenoxy)-2-(4-methoxyphenyl)benzo[b]thiophene hydrochloride] | – | – | – | – | physically stable | about 2.2% | 1.5% | comparable
